Test results reported in patent publication US20180334436A1 (VIIV HEALTHCARE UK LIMITED, priority 2015, published 2018).

These compounds were tested on HIV (assay: MT4 assay (anti-HIV activity)). Details: Human immunodeficiency virus 1, 96 h, antiviral HIV activity in HTLV-1 transformed cell line MT-4; luciferase read 96 hours later; 10 point dose response.
Format: cell-based
Method: Antiviral HIV activity and cytotoxicity values for compounds of the invention from Table 1 were measured in parallel in the HTLV-1 transformed cell line MT-4 based on the method previously described (Hazen et al., 2007, In vitro antiviral activity of the novel, tyrosyl-based human immunodeficiency virus (HIV) type 1 protease inhibitor brecanavir (GW640385) in combination with other antiretrovirals and against a panel of protease inhibitor-resistant HIV (Hazen et al., “In vitro antiviral activity of the novel, tyrosyl-based human immunodeficiency virus (HIV) type 1 protease inhibitor brecanavir (GW640385) in combination with other antiretrovirals and against a panel of protease inhibitor-resistant HIV”, Antimicrob. Agents Chemother. 2007, 51: 3147-3154; and Pauwels et al., “Sensitive and rapid assay on MT-4 cells for the detection of antiviral compounds against the AIDS virus”, J. of Virological Methods 1987, 16: 171-185).
Luciferase activity was measured 96 hours later by adding a cell titer glo (Promega, Madison, Wis.). Percent inhibition of cell protection data was plotted relative to no compound control. Under the same condition, cytotoxicity of the compounds was determined using cell titer Glo™ (Promega, Madison, Wis.). IC50s were determined from a 10 point dose response curve using 3-4-fold serial dilution for each compound, which spans a concentration range >1000 fold.
These values are plotted against the molar compound concentrations using the standard four parameter logistic equation:
y=((Vmax*x̂n)/(K̂n+x̂n))+Y2
Y2=minimum y n=slope factor
Vmax=maximum y x=compound concentration [M]
`COc1ccc(C(=O)N2CCc3c(C)c([C@H](OC(C)(C)C)C(=O)O)c(-c4cc(F)c5c(c4C)CCCO5)c(C)c3C2)cc1C` (atropisomer, axis not shown) [Example 97, (S)-2-(tert-butoxy)-2-((R)-7-(8-fluoro-5-methylchroman-6-yl)-2-(4-methoxy-3-methylbenzoyl)-5,8-dimethyl-1,2,3,4-tetrahydroisoquinolin-6-yl)acetic Acid] was tested, and the IC50 was 36 nM. `Cc1c(-c2c(C)c3c(c(C)c2[C@H](OC(C)(C)C)C(=O)O)CC(=O)N(c2cccc(F)c2)C3)cc(F)c2c1CCCO2` (atropisomer, axis not shown) [Example 103, (S)-2-(tert-Butoxy)-2-((R)-7-(8-fluoro-5-methylchroman-6-yl)-2-(3-fluorophenyl)-5,8-dimethyl-3-oxo-1,2,3,4-tetrahydroisoquinolin-6-yl)acetic Acid] was tested, and the IC50 was 2 nM. With `Cc1c(-c2c(C)c3c(c(C)c2[C@H](OC(C)(C)C)C(=O)O)CC(=O)N(C2CCCCC2)C3)cc(F)c2c1CCCO2` (atropisomer, axis not shown) [Example 104, (S)-2-(tert-butoxy)-2-((R)-2-cyclohexyl-7-(8-fluoro-5-methylchroman-6-yl)-5,8-dimethyl-3-oxo-1,2,3,4-tetrahydroisoquinolin-6-yl)acetic Acid] the IC50 was 2 nM. Compound `Cc1c(-c2c(C)c3c(c(C)c2[C@H](OC(C)(C)C)C(=O)O)CC(=O)N(C2CCC(C)(C)CC2)C3)cc(F)c2c1CCCO2` (atropisomer, axis not shown) [Example 105, (S)-2-(tert-butoxy)-2-((R)-2-(4,4-dimethylcyclohexyl)-7-(8-fluoro-5-methylchroman-6-yl)-5,8-dimethyl-3-oxo-1,2,3,4-tetrahydroisoquinolin-6-yl)acetic Acid] has an IC50 of 2 nM. With `Cc1c(-c2c(C)c3c(c(C)c2[C@H](OC(C)(C)C)C(=O)O)CC(=O)N(CC2CCCCC2)C3)cc(F)c2c1CCCO2` (atropisomer, axis not shown) [Example 106, (S)-2-(tert-butoxy)-2-((R)-2-(cyclohexylmethyl)-7-(8-fluoro-5-methylchroman-6-yl)-5,8-dimethyl-3-oxo-1,2,3,4-tetrahydroisoquinolin-6-yl)acetic Acid] the IC50 was 3 nM. Work on `COc1c(F)cccc1N1Cc2c(C)c(-c3cc(F)c4c(c3C)CCCO4)c([C@H](OC(C)(C)C)C(=O)O)c(C)c2CC1=O` (atropisomer, axis not shown) [Example 107, (S)-2-(tert-butoxy)-2-((R)-2-(3-fluoro-2-methoxyphenyl)-7-(8-fluoro-5-methylchroman-6-yl)-5,8-dimethyl-3-oxo-1,2,3,4-tetrahydroisoquinolin-6-yl)acetic Acid] yielded an IC50 of 2 nM. `Cc1c(-c2c(C)c3c(c(C)c2[C@H](OC(C)(C)C)C(=O)O)CC(=O)N(C2CCOCC2)C3)cc(F)c2c1CCCO2` (atropisomer, axis not shown) [Example 108, (S)-2-(tert-butoxy)-2-((R)-7-(8-fluoro-5-methylchroman-6-yl)-5,8-dimethyl-3-oxo-2-(tetrahydro-2H-pyran-4-yl)-1,2,3,4-tetrahydroisoquinolin-6-yl)acetic Acid] gave an IC50 of 13 nM. Work on `Cc1c(-c2c(C)c3c(c(C)c2[C@H](OC(C)(C)C)C(=O)O)C(C)(C)C(=O)N(C2CCCCC2)C3)cc(F)c2c1CCCO2` (atropisomer, axis not shown) [Example 109] yielded an IC50 of 4 nM. For `Cc1c(-c2c(C)c3c(c(C)c2[C@H](OC(C)(C)C)C(=O)O)CC(=O)N(CC(C)C)C3)cc(F)c2c1CCCO2` (atropisomer, axis not shown) [Example 110], the IC50 was 3 nM. With `Cc1c(-c2c(C)c3c(c(C)c2[C@H](OC(C)(C)C)C(=O)O)CC(=O)N(C2CCN(C)CC2)C3)cc(F)c2c1CCCO2` (atropisomer, axis not shown) [Example 112, (S)-2-(tert-butoxy)-2-((R)-7-(8-fluoro-5-methylchroman-6-yl)-5,8-dimethyl-2-(1-methylpiperidin-4-yl)-3-oxo-1,2,3,4-tetrahydroisoquinolin-6-yl)acetic Acid] the IC50 was 1040 nM. With `Cc1c(-c2c(C)c3c(c(C)c2[C@H](OC(C)(C)C)C(=O)O)CC(=O)N(CC2CCOCC2)C3)cc(F)c2c1CCCO2` (atropisomer, axis not shown) [Example 113] the IC50 was 14 nM. With `Cc1c(-c2c(C)c3c(c(C)c2[C@H](OC(C)(C)C)C(=O)O)CC(=O)N(C2CCC(F)(F)CC2)C3)cc(F)c2c1CCCO2` (atropisomer, axis not shown) [Example 114, (S)-2-(tert-butoxy)-2-((R)-2-(4,4-difluorocyclohexyl)-7-(8-fluoro-5-methylchroman-6-yl)-5,8-dimethyl-3-oxo-1,2,3,4-tetrahydroisoquinolin-6-yl)acetic Acid] the IC50 was 3 nM. Work on `Cc1c(-c2c(C)c3c(c(C)c2[C@H](OC(C)(C)C)C(=O)O)CC(=O)N(C2CCN(C(=O)OC(C)(C)C)CC2)C3)cc(F)c2c1CCCO2` (atropisomer, axis not shown) [Example 115] yielded an IC50 of 116 nM. `Cc1c(-c2c(C)c3c(c(C)c2[C@H](OC(C)(C)C)C(=O)O)CC(=O)N(C2CCCCC2)C3)cc(Cl)c2c1CCCO2` (atropisomer, axis not shown) [Example 118] gave an IC50 of 4 nM. Work on `Cc1c(-c2c(C)c3c(c(C)c2[C@H](OC(C)(C)C)C(=O)O)CC(=O)N(C2CCCCC2)C3)ccc2c1NCCO2` (atropisomer, axis not shown) [Example 119, (S)-2-(tert-butoxy)-2-((R)-2-cyclohexyl-5,8-dimethyl-7-(5-methyl-3,4-dihydro-2H-benzo[b][1,4]oxazin-6-yl)-3-oxo-1,2,3,4-tetrahydroisoquinolin-6-yl)acetic Acid] yielded an IC50 of 8 nM. Compound `Cc1c(-c2c(C)c3c(c(C)c2[C@H](OC(C)(C)C)C(=O)O)CC(=O)N(C2CCCCC2)C3)ccc2c1CCCO2` (atropisomer, axis not shown) [Example 120, (S)-2-(tert-butoxy)-2-((R)-2-cyclohexyl-5,8-dimethyl-7-(5-methylchroman-6-yl)-3-oxo-1,2,3,4-tetrahydroisoquinolin-6-yl)acetic Acid] has an IC50 of 2 nM. Compound `Cc1c(-c2c(C)c3c(c(C)c2[C@H](OC(C)(C)C)C(=O)O)CCN(C2CCCCC2)C3)cc(F)c2c1CCCO2` (atropisomer, axis not shown; (M)) [Example 67, (2S)(M)-2-(tert-butoxy)-2-(2-cyclohexyl-7-(8-fluoro-5-methylchroman-6-yl)-5,8-dimethyl-1,2,3,4-tetrahydroisoquinolin-6-yl)acetic Acid] has an IC50 of 5 nM. In the case of `Cc1c(-c2c(C)c3c(c(C)c2[C@H](OC(C)(C)C)C(=O)O)CCN(S(=O)(=O)C2CCCCC2)C3)ccc2c1CCCO2` (atropisomer, axis not shown; (M)) [Example 83, (2S)(M)-2-(tert-butoxy)-2-(-2-(cyclohexylsulfonyl)-5,8-dimethyl-7-(5-methylchroman-6-yl)-1,2,3,4-tetrahydroisoquinolin-6-yl)acetic Acid], the IC50 is reported as 46 nM. Compound `Cc1c(-c2c(C)c3c(c(C)c2[C@H](OC(C)(C)C)C(=O)O)CCN(C2CCCCC2)C3)ccc2c1CCCO2` (atropisomer, axis not shown; (M)) [Example 84, (S)(M)-2-(tert-butoxy)-2-(2-cyclohexyl-5,8-dimethyl-7-(5-methylchroman-6-yl)-1,2,3,4-tetrahydroisoquinolin-6-yl)acetic Acid] has an IC50 of 5 nM. Compound `Cc1c(-c2c(C)c3c(c(C)c2[C@H](OC(C)(C)C)C(=O)O)CCN(S(=O)(=O)C2CCCCC2)C3)cc(Cl)c2c1CCCO2` (atropisomer, axis not shown; (M)) [Example 88, (S)(M)-2-(tert-butoxy)-2-(7-(8-chloro-5-methylchroman-6-yl)-2-(cyclohexylsulfonyl)-5,8-dimethyl-1,2,3,4-tetrahydroisoquinolin-6-yl)acetic Acid] has an IC50 of 36 nM. `Cc1c(-c2c(C)c3c(c(C)c2[C@H](OC(C)(C)C)C(=O)O)CCN(C2CCCCC2)C3)cc(Cl)c2c1CCCO2` (atropisomer, axis not shown; (M)) [Example 89, (S)(M)-2-(tert-butoxy)-2-(7-(8-chloro-5-methylchroman-6-yl)-2-cyclohexyl-5,8-dimethyl-1,2,3,4-tetrahydroisoquinolin-6-yl)acetic Acid] was tested, and the IC50 was 12 nM. In the case of `Cc1c(-c2c(C)c3c(c(C)c2[C@H](OC(C)(C)C)C(=O)O)CCN(S(=O)(=O)C2CCCCC2)C3)ccc2c1NCCO2` (atropisomer, axis not shown; (M)) [Example 95, (S)(M)-2-(tert-butoxy)-2-(2-(cyclohexylsulfonyl)-5,8-dimethyl-7-(5-methyl-3,4-dihydro-2H-benzo[b][1,4]oxazin-6-yl)-1,2,3,4-tetrahydroisoquinolin-6-yl)acetic Acid], the IC50 is reported as 9 nM. In the case of `Cc1c(-c2c(C)c3c(c(C)c2[C@H](OC(C)(C)C)C(=O)O)CC(=O)N(Cc2ccccc2)C3)cc(F)c2c1CCCO2` (atropisomer, axis not shown; (M)) [Example 102, (S)(M)-2-(2-benzyl-7-(8-fluoro-5-methylchroman-6-yl)-5,8-dimethyl-3-oxo-1,2,3,4-tetrahydroisoquinolin-6-yl)-2-(tert-butoxy)acetic Acid], the IC50 is reported as 3 nM. Work on `Cc1ccc(-c2c(C)c3c(c(C)c2[C@H](OC(C)(C)C)C(=O)O)CCN(C2CCC[C@@H](C)C2)C3)cc1` (single isomer, unassigned) [Example 71] yielded an IC50 of 14 nM.
